ChEMBL document CHEMBL1201862, “PubChem BioAssay data set” (2004)
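Briefly, cells in 96-well plates were exposed to five compound concentrations for 48 h, and endpoints were estimated by linear interpolation. GI50 = concentration required for 50% inhibition of growth.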 Calls of active or inactive are those of the source. Rule as the data show it: active = GI50 up to about 1.1 µM and inactive = higher.

Key:
Test in all cases: NCI-60 cell line screen, 48 h
[1] = test system: NCI-H460
[2] = test system: SK-MEL-2
[3] = test system: UO-31
[4] = test system: SF-539
[5] = test system: MOLT-4
[6] = test system: HOP-92
[7] = test system: HL-60
[8] = test system: 786-0
[9] = test system: SR
[10] = test system: A549
[11] = test system: HCT-116
[12] = test system: DMS-273
[13] = test system: DLD-1
[14] = test system: U-251
[15] = test system: SK-MEL-28
[16] = test system: TK-10
[17] = test system: KM12
[18] = test system: HOP-62
[19] = test system: HT-29
[20] = test system: Malme-3M
[21] = test system: DMS-114
[22] = test system: NCI-H226
[23] = test system: ACHN
[24] = test system: LXFL 529
[25] = test system: M14
[26] = test system: NCI-H522
[27] = test system: K562
[28] = test system: OVCAR-8
[29] = test system: UACC-257
[30] = test system: RPMI-8226
[31] = test system: SW-620
[32] = test system: OVCAR-5
[33] = test system: SNB-75
[34] = test system: NCI-H23
[35] = test system: SK-MEL-5
[36] = test system: HCC 2998
[37] = test system: SF-268
[38] = test system: COLO 205
[39] = test system: HCT-15
[40] = test system: CCRF-CEM
[41] = test system: KM-20L2
[42] = test system: OVCAR-4
[43] = test system: SNB-19
[44] = test system: SF-295
[45] = test system: OVCAR-3
[46] = test system: CAKI-1
[47] = test system: NCI/ADR-RES
[48] = test system: SN12C
[49] = test system: A498
[50] = test system: IGROV-1
[51] = test system: EKVX
[52] = test system: UACC-62
[53] = test system: Hs-578T
[54] = test system: MDA-MB-231
[55] = test system: DU-145
[56] = test system: LOX IMVI
[57] = test system: PC-3
[58] = test system: MCF7
[59] = test system: BT-549
[60] = test system: T47D
[61] = test system: MDA-MB-435
[62] = test system: RXF 393
[63] = test system: SK-OV-3
[64] = test system: MDA-N

Cc1c2c(ccc3ccccc32)c[n+]2ccccc12
GI50 [1]: > 10 µM (inactive)
GI50 [2]: 15.8 µM (inactive)
GI50 [3]: 20.9 µM (inactive)
GI50 [4]: 13.9 µM (inactive)
GI50 [5]: 6.59 µM (inactive)
GI50 [6]: 40.6 µM (inactive)
GI50 [7]: 28.4 µM (inactive)
GI50 [8]: 10.1 µM (inactive)
GI50 [9]: 4.16 µM (inactive)
GI50 [10]: 1.44 µM (inactive)
GI50 [11]: 21.8 µM (inactive)
GI50 [12]: 12.7 µM (inactive)
GI50 [13]: 9.75 µM (inactive)
GI50 [14]: 2.03 µM (inactive)
GI50 [15]: 15.7 µM (inactive)
GI50 [16]: > 100 µM (inactive)
GI50 [17]: 1.09 µM (active)
GI50 [18]: 3.23 µM (inactive)
GI50 [19]: 49.7 µM (inactive)
GI50 [20]: 2.25 µM (inactive)
GI50 [21]: 3.24 µM (inactive)
GI50 [22]: 5.3 µM (inactive)
GI50 [23]: 44.4 µM (inactive)
GI50 [24]: 5.09 µM (inactive)
GI50 [25]: 19.7 µM (inactive)
GI50 [26]: 4.79 µM (inactive)
GI50 [27]: 11.6 µM (inactive)
GI50 [28]: 12.4 µM (inactive)
GI50 [29]: 10.2 µM (inactive)
GI50 [30]: 32.1 µM (inactive)
GI50 [31]: 5.5 µM (inactive)
GI50 [32]: 55.7 µM (inactive)
GI50 [33]: 4.21 µM (inactive)
GI50 [34]: 4.15 µM (inactive)
GI50 [35]: 3.56 µM (inactive)
GI50 [36]: 9.46 µM (inactive)
GI50 [37]: 2.01 µM (inactive)
GI50 [38]: 13 µM (inactive)
GI50 [39]: 86.9 µM
GI50 [40]: 11 µM (inactive)
GI50 [41]: 12.6 µM (inactive)
GI50 [42]: 12 µM (inactive)
GI50 [43]: 2.07 µM (inactive)
GI50 [44]: 3.78 µM (inactive)
GI50 [45]: 2.27 µM (inactive)
GI50 [46]: > 100 µM (inactive)

C=C1C(=O)O[C@@H]2C[C@@H](C)[C@@H]3C=CC(=O)[C@@]3(C)[C@@H](OC(=O)CCCC(=O)O[C@H]3[C@@H]4C(=C)C(=O)O[C@@H]4C[C@@H](C)[C@@H]4C=CC(=O)[C@]43C)[C@H]12
GI50 [1]: 0.27 µM (active)
GI50 [2]: 0.152 µM (active)
GI50 [3]: 0.135 µM (active)
GI50 [4]: 0.0762 µM (active)
GI50 [5]: < 0.01 µM (active)
GI50 [6]: 0.034 µM (active)
GI50 [7]: < 0.01 µM (active)
GI50 [8]: 0.0171 µM (active)
GI50 [9]: < 0.01 µM (active)
GI50 [10]: 1.63 µM (inactive)
GI50 [11]: 0.0143 µM (active)
GI50 [47]: 0.396 µM (active)
GI50 [14]: 0.101 µM (active)
GI50 [15]: 0.0495 µM (active)
GI50 [48]: 0.0402 µM (active)
GI50 [16]: 0.0682 µM (active)
GI50 [17]: 0.231 µM (active)
GI50 [18]: 1.04 µM (active)
GI50 [19]: 0.0352 µM (active)
GI50 [20]: 0.0176 µM (active)
GI50 [22]: 0.505 µM (active)
GI50 [23]: 0.0266 µM (active)
GI50 [49]: 0.181 µM (active)
GI50 [50]: 0.112 µM (active)
GI50 [25]: 0.0217 µM (active)
GI50 [26]: 0.0102 µM (active)
GI50 [51]: 0.0875 µM (active)
GI50 [27]: < 0.01 µM (active)
GI50 [52]: 0.0565 µM (active)
GI50 [28]: 0.0131 µM (active)
GI50 [53]: 0.104 µM (active)
GI50 [29]: 0.114 µM (active)
GI50 [30]: 0.0107 µM (active)
GI50 [31]: 0.0144 µM (active)
GI50 [54]: 0.0284 µM (active)
GI50 [32]: 0.139 µM (active)
GI50 [55]: 0.28 µM (active)
GI50 [56]: 0.0518 µM (active)
GI50 [33]: 0.113 µM (active)
GI50 [34]: 0.0853 µM (active)
GI50 [35]: 0.134 µM (active)
GI50 [57]: 0.0931 µM (active)
GI50 [36]: 0.624 µM (active)
GI50 [58]: 0.0348 µM (active)
GI50 [59]: 0.0252 µM (active)
GI50 [37]: 0.0693 µM (active)
GI50 [38]: 0.0197 µM (active)
GI50 [60]: 0.0214 µM (active)
GI50 [39]: 0.0335 µM
GI50 [61]: 0.0167 µM (active)
GI50 [40]: < 0.01 µM (active)
GI50 [62]: 0.0187 µM (active)
GI50 [63]: 1.35 µM (inactive)
GI50 [64]: 0.0183 µM (active)
GI50 [42]: 0.0455 µM (active)
GI50 [43]: 1.05 µM (active)
GI50 [44]: 0.989 µM (active)
GI50 [45]: 0.0398 µM (active)
GI50 [46]: 0.0323 µM (active)

O=[N+]([O-])c1c(F)c(F)c2c(c1F)Nc1ccccc1S2
GI50 [1]: 6 µM (inactive)
GI50 [2]: 2.14 µM (inactive)
GI50 [3]: 18.2 µM (inactive)
GI50 [4]: 20.6 µM (inactive)
GI50 [5]: 2.61 µM (inactive)
GI50 [6]: 15.2 µM (inactive)
GI50 [7]: 4.29 µM (inactive)
GI50 [8]: 8.24 µM (inactive)
GI50 [9]: 2.62 µM (inactive)
GI50 [10]: 19.2 µM (inactive)
GI50 [11]: 2.47 µM (inactive)
GI50 [47]: 25.9 µM (inactive)
GI50 [14]: 2.05 µM (inactive)
GI50 [15]: 2.51 µM (inactive)
GI50 [48]: 3.38 µM (inactive)
GI50 [16]: 23.8 µM (inactive)
GI50 [17]: 4.49 µM (inactive)
GI50 [18]: 12.6 µM (inactive)
GI50 [19]: 2.07 µM (inactive)
GI50 [20]: 5.55 µM (inactive)
GI50 [22]: 16.9 µM (inactive)
GI50 [23]: 15.7 µM (inactive)
GI50 [49]: 16.4 µM (inactive)
GI50 [50]: 3.08 µM (inactive)
GI50 [25]: 3.64 µM (inactive)
GI50 [26]: 4.68 µM (inactive)
GI50 [51]: 6.44 µM (inactive)
GI50 [27]: 2.87 µM (inactive)
GI50 [52]: 5.61 µM (inactive)
GI50 [28]: 1.96 µM (inactive)
GI50 [53]: 7.1 µM (inactive)
GI50 [29]: 1.49 µM (inactive)
GI50 [30]: 4.7 µM (inactive)
GI50 [31]: 2.77 µM (inactive)
GI50 [54]: 2.27 µM (inactive)
GI50 [32]: 13 µM (inactive)
GI50 [55]: 4.06 µM (inactive)
GI50 [56]: 1.86 µM (inactive)
GI50 [33]: 17.3 µM (inactive)
GI50 [34]: 2.63 µM (inactive)
GI50 [35]: 11.6 µM (inactive)
GI50 [57]: 9.16 µM (inactive)
GI50 [36]: 2.76 µM (inactive)
GI50 [58]: 5 µM (inactive)
GI50 [59]: 11 µM (inactive)
GI50 [37]: 2.49 µM (inactive)
GI50 [38]: 13.9 µM (inactive)
GI50 [60]: 3.03 µM (inactive)
GI50 [39]: 4.83 µM
GI50 [61]: 4.81 µM (inactive)
GI50 [40]: 2.69 µM (inactive)
GI50 [62]: 2.25 µM (inactive)
GI50 [63]: 18.2 µM (inactive)
GI50 [64]: 4.42 µM (inactive)
GI50 [42]: 2.58 µM (inactive)
GI50 [43]: 7.23 µM (inactive)
GI50 [44]: 17.3 µM (inactive)
GI50 [45]: 2.03 µM (inactive)
GI50 [46]: 3.99 µM (inactive)

CCCCCCOc1ccc(C(=O)NO)cc1
GI50 [1]: 4.68 µM (inactive)
GI50 [2]: 12.4 µM (inactive)
GI50 [3]: 6.08 µM (inactive)
GI50 [4]: 11.3 µM (inactive)
GI50 [5]: 1.07 µM (active)
GI50 [6]: 13.9 µM (inactive)
GI50 [7]: 1.81 µM (inactive)
GI50 [8]: 3.68 µM (inactive)
GI50 [9]: 1.19 µM (inactive)
GI50 [10]: 14.3 µM (inactive)
GI50 [11]: 8.53 µM (inactive)
GI50 [47]: 3.08 µM (inactive)
GI50 [14]: 10.4 µM (inactive)
GI50 [15]: 16 µM (inactive)
GI50 [48]: 10.2 µM (inactive)
GI50 [16]: 17.1 µM (inactive)
GI50 [17]: 11.9 µM (inactive)
GI50 [18]: 11.8 µM (inactive)
GI50 [19]: 7.57 µM (inactive)
GI50 [20]: 11.3 µM (inactive)
GI50 [22]: 9.46 µM (inactive)
GI50 [23]: 5.07 µM (inactive)
GI50 [49]: 13 µM (inactive)
GI50 [50]: 3.61 µM (inactive)
GI50 [25]: 11.9 µM (inactive)
GI50 [26]: 3.14 µM (inactive)
GI50 [51]: 15 µM (inactive)
GI50 [27]: 5.22 µM (inactive)
GI50 [52]: 6.82 µM (inactive)
GI50 [28]: 5.08 µM (inactive)
GI50 [53]: 19.6 µM (inactive)
GI50 [29]: 22.8 µM (inactive)
GI50 [30]: 2.82 µM (inactive)
GI50 [31]: 5.02 µM (inactive)
GI50 [54]: 11 µM (inactive)
GI50 [32]: 11.6 µM (inactive)
GI50 [55]: 8.05 µM (inactive)
GI50 [56]: 2.17 µM (inactive)
GI50 [33]: 13.4 µM (inactive)
GI50 [34]: 7.03 µM (inactive)
GI50 [35]: 15.7 µM (inactive)
GI50 [57]: 9.51 µM (inactive)
GI50 [36]: 9.25 µM (inactive)
GI50 [58]: 25.8 µM (inactive)
GI50 [59]: 15.8 µM (inactive)
GI50 [37]: 5.64 µM (inactive)
GI50 [38]: 9.51 µM (inactive)
GI50 [60]: 5.83 µM (inactive)
GI50 [39]: 1.61 µM
GI50 [61]: 9.68 µM (inactive)
GI50 [40]: 0.362 µM (active)
GI50 [62]: 11.3 µM (inactive)
GI50 [63]: 10.5 µM (inactive)
GI50 [64]: 13.2 µM (inactive)
GI50 [42]: 5.74 µM (inactive)
GI50 [43]: 17.8 µM (inactive)
GI50 [44]: 8.26 µM (inactive)
GI50 [45]: 6.03 µM (inactive)
GI50 [46]: 4.44 µM (inactive)
